The results in this text go back to patent publication US20160060602A1, “FUSION MIXTURE” (FORSCHUNGSZENTRUM JÜLICH GMBH, priority 2013, published 2016).

The subject of this assay is MDA-MB-231 cancer cells. Put plainly: Doxorubicin delivery into cancer cells (fluorescence microscopy). The format is cell-based. The conditions noted are these: MDA-MB-231 cells, 10-minute incubation, same amount of doxorubicin (2 μg). On the procedure: The components of fusion liposomes, DOTAL (molecules of type A) and Doxorubicin (molecules of type B), were mixed at a ratio of 1:0.1 mol/mol from 1 mg/ml parent solutions in chloroform.
Following homogenization of the lipid molecules with the aromatic doxorubicin, the organic solvent was removed under vacuum. The dried mixture was placed in 20 mM HEPES solution having a pH of 7.4 and homogenized in an ultrasonic bath for 20 minutes. The final concentration of the fusion mixture was set to 2 mg/ml. After a dilution of 1/100 v/v in DMEM medium, 500 μl of the fusion mixture was added to approximately 100,000 adherent MDA-MB-231 cancer cells and incubated for 10 minutes at 37° C.
A further cell sample was incubated with the same amount of doxorubicin (2 μg) in culture medium without fusion mixture for control purposes. The conventional dosage is 1 mg/ml.
In addition, doxorubicin was introduced into neutral DOPC liposomes (without molecules of type A) (DOPC:Dox at a ratio of 1:0.1 mol/mol) and added to adherent cells in the same concentration as in the other sample (2 μg/ml). […] The results were then compared to each other.

Consider `COc1cccc2c1C(=O)c1c(O)c3c(c(O)c1C2=O)C[C@@](O)(C(=O)CO)C[C@@H]3O[C@H]1C[C@H](N)[C@H](O)[C@H](C)O1` [free doxorubicin, doxorubicin], for which the “doxorubicin uptake (fluorescent signal in cells)” value is recorded as “low fluorescent signal”.
